Laboratory results taken from patent US9198886B2, “Use of 2,5-dihydroxybenzene for the treatment of ocular diseases” (priority 2006, dated 2015).

Assays:
[1] = biological target: fibroblast growth factor-1 (FGF-1) (Homo sapiens, UniProt P05230); test: Co-crystal structure with fibroblast growth factor-1; assay type: binding
Excerpt: (§1) FIG. 24. 2-acetoxy-5-hydroxybenzenesulfonic acid co-crystallized with fibroblast growth factor-1. […] The compound occupies a place that is very close to that described occupied by 2,5-dihydroxybenzenesulfonic acid, the aromatic ring of which forms a cation-π bond with the N^ε group of lysine 132, which is marked in panel A as reference. […] In panels A and B, the protein surface is colored according to its electrostatic potential (light grey: negative charge; dark grey: positive charge; white: lack of charge).
as §1, with “25. 5-acetoxy-2-hydroxybenzenesulfonic” for “24. 2-acetoxy-5-hydroxybenzenesulfonic”
as §1, with “26. 2,5-diacetoxybenzenesulfonic” for “24. 2-acetoxy-5-hydroxybenzenesulfonic”
Based on the crystal diffraction of the FGF-1:2-acetoxy-5-hydroxybenzene sulfonic acid, FGF-1:5-acetoxy-2-hydroxybenzene sulfonic acid and FGF-1:2,5-diacetoxybenzene sulfonic acid complexes, the structures of the complexes were calculated and represented. FIGS. 24, 25 and 26, which show the surface of the dyed protein according to its electrostatic potential (light grey: negative charge; dark grey: positive charge; white: lack of charge), show the manner in which 2-acetoxy-5-hydroxybenzene sulfonic acid, 5-acetoxy-2-hydroxybenzene sulfonic acid and 2,5-diacetoxybenzene sulfonic acid interact, respectively, with FGF-1.

[2] = tested on: human retinal endothelial cells (HREC); test: Proliferation of human retinal endothelial cells (crystal violet); assay type: cell-based; details: 100 μM, 72 hours; DHBS as calcium salt
Method: (§2) Primary cultures of human retinal endothelial cells (HREC) were used. Cells were obtained from Cell Systems (Virginia, USA) and subcultured with CSC complete medium (Cell Systems). Cells at 2 to 5 passages were seeded in 24-well plates at 7,500 cells/well density and, once attached, the cells were treated or not treated (controls) with 2A-5HBS (500 and 1000 μM) or 5A-2HBS (500 and 1000 μM) and they were allowed to proliferate for 72 hours, with daily medium changes. After that, the proliferation of HREC was evaluated by staining the fixed cells with crystal violet. The number of cells is proportional to the amount of retained dye, which was spectrophotometrically determined by measuring absorbance at 595 nm after removing the dye from the cells. Data are expressed as the percentage of absorbance at 595 nm obtained in control conditions. Data were obtained from two different experiments performed in triplicate.
as §2, with “2,5-DHCME (50” for “2A-5HBS (500”, “100” for “1000 μM) or 5A-2HBS (500 and 1000”, “changes. Under the same conditions, other cultures were treated with calcium 2,5-dihydroxybenzenesulfonate (DHBS; 100 μM) for comparison.” for “changes.”

fibroblast growth factor-1 (FGF-1), sequence (P05230 whole entry, species assumed): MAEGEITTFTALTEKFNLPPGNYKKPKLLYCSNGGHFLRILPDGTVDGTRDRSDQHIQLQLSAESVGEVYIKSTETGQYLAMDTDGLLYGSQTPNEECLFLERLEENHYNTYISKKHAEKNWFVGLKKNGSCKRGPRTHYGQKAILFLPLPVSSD

SMILES | binding site on FGF-1 ([1]; crystal diffraction of the complex) | acetoxyl groups of the compound when bound to FGF-1 ([1]; crystal diffraction, electron density contoured at 1σ) | HREC proliferation [2]
CC(=O)Oc1ccc(OC(C)=O)c(S(=O)(=O)[O-])c1.[K+] [DABS, potassium 2,5-diacetoxybenzene sulfonate] | very close to the one that has been described occupied by 2,5-dihydroxybenzene sulfonic acid | conserve the acetoxyl groups | 
O=S(=O)(O)c1cc(O)ccc1O [DHBS, 2,5-dihydroxybenzene sulfonic acid] |  |  | failed to significantly affect HREC proliferation
